Laboratory results published in ChEMBL document CHEMBL4387739, “Discovery of antichagasic inhibitors by high-throughput screening with Trypanosoma cruzi glucokinase” (Bioorg Med Chem Lett, 2019).

How the values were obtained:
Homo sapiens = species on record: Homo sapiens; experiment: Inhibition of human glucose-6-phosphate dehydrogenase truncated mutant (29 to 511 residues) at 20 uM in presence of NADP and glucose-6-phosphate by diaphorase/resazurin coupled fluorescence assay relative to control
Trypanosoma cruzi [1] = experiment: Inhibition of Trypanosoma cruzi glucokinase at 20 uM using D-glucose as substrate after 1 hr in presence of ATP and […] by resazurin dye based G6PDH-diaphorase coupled fluorescence assay relative to control
[2] = Inhibition of Trypanosoma cruzi glucokinase using D-glucose as substrate in presence of ATP and […] measured for every 30 secs for 10 mins by resazurin dye based G6PDH-diaphorase coupled fluorescence assay relative to control
Trypanosoma cruzi [3] = experiment: Antitrypanosomal activity against Trypanosoma cruzi Tulahuen […] infected in mouse NIH/3T3 cells assessed as parasite viability at 80 uM by beta-galactosidase reporter gene assay relative to control; format: functional
[4] = Cytotoxicity against mouse NIH/3T3 cells after 72 hrs by alamar blue assay; format: cell-based, NIH3T3; conditions: read-out: TC50
Trypanosoma cruzi [5] = experiment: Antitrypanosomal activity against Trypanosoma cruzi Tulahuen […] infected in mouse NIH/3T3 cells assessed as reduction in parasite viability by beta-galactosidase reporter gene assay; format: functional, organism-based; conditions: NIH3T3

Compound | inhibition (Homo sapiens) | inhibition (Trypanosoma cruzi [1]) | IC50 [2] | Activity (Trypanosoma cruzi [3]) | CC50 at 72 h [4] | EC50 (Trypanosoma cruzi [5])
Cc1nn(-c2ccccc2)c2c1C(c1ccc(F)cc1)C(C#N)=C(N)O2 (stereo not drawn) | 2.7% | 55% | 17.1 µM | 87.1% |  | 
N#CCCOCCC#CCN1CCCC[C@@H]1c1cccnc1 | 9.2% | 36.7% |  | 50.5% |  | 
CN1C(=O)C(=Cc2ccc(N(C)C)cc2)C(=O)N(C)C1=O | 10% | 63.5% | 5.5 µM | 78.9% |  | 
O=C1NC(=O)C(=Cc2ccc(Br)s2)C(=O)N1 | 14.8% | 35.9% | 1.6 µM | 74.2% |  | 
Cc1ccc(-n2nc(C)c3c2OC(N)=C(C#N)C3c2ccoc2)cc1 (stereo not drawn) | 19.9% | 46.3% |  | 80.6% |  | 
COc1ccc(Br)cc1C1C(C#N)=C(N)Oc2c1c(C)nn2-c1ccccc1 (stereo not drawn) | 14% | 72.9% |  | 0% |  | 
OC1(C#CCN2CCCC[C@@H]2c2cccnc2)CCCCCC1 | 7.8% | 64% |  | 22.6% |  | 
O=C(O)C1Nc2c(I)cccc2C2C=CCC12 (stereo not drawn) | 19% | 74.2% |  | 44.3% |  | 
CCOc1ccc([C@@H]2Oc3ccccc3C=C2[N+](=O)[O-])cc1OCC | 4.3% | 72.9% |  | 0% |  | 
O=C1NC(=O)C(=Cc2ccc3c(c2)OCO3)C(=O)N1 | 5.5% | 67% | 8.7 µM | 81.2% |  | 
COc1ccc([C@@H]2Oc3ccccc3C=C2[N+](=O)[O-])cc1OC | 8.1% | 41.5% | 53.2 µM | 0% |  | 
CCOc1ccc([C@@H]2Oc3ccc(Br)cc3C=C2[N+](=O)[O-])cc1OC | 8.2% | 43.8% | 6.1 µM | 0% | 80.7 µM | 2.1 µM
O=C1C(=Cc2ccco2)C(=O)N(c2ccccc2)C(=O)N1c1ccccc1 | 6.6% | 54.8% | 0.3 µM | 66.5% |  | 
O=C1NC(=O)C(=Cc2ccc(O)c(O)c2)C(=O)N1 | 2% | 79.4% | 3.1 µM | 62.8% |  | 
O=[N+]([O-])C1=Cc2c(ccc3ccccc23)O[C@H]1c1ccc2c(c1)OCO2 | 8.2% | 68.4% |  | 0% |  | 
COc1ccc(C(=O)Nc2sc3c(c2C(N)=O)CCCCC3)cc1OC | 12.6% | 42.7% |  | 50.5% |  | 
Cc1nn(-c2cccc(Cl)c2)c2c1C(c1cc([N+](=O)[O-])ccc1Cl)C(C#N)=C(N)O2 (stereo not drawn) | 1.7% | 36.8% |  | 0% |  | 
COc1ccc(Br)cc1/C=C1\C(=O)NC(=O)N(CCC2=CCCCC2)C1=O | 16.3% | 59.8% | 8 µM | 88.7% |  | 
Cc1cc2c(c(O)c1-c1c(C)cc3c(c1O)/C(=C/Nc1cccc4c(N)cccc14)C(=O)C(O)=C3C(C)C)/C(=C/Nc1cccc3c(N)cccc13)C(=O)C(O)=C2C(C)C | 9.6% | 66.9% | 16.5 µM | 1.7% |  | 
Cc1cc2c(c(O)c1-c1c(C)cc3c(c1O)/C(=C/Nc1ccc(S(=O)(=O)NC(=N)N)cc1)C(=O)C(O)=C3C(C)C)/C(=C/Nc1ccc(S(=O)(=O)NC(=N)N)cc1)C(=O)C(O)=C2C(C)C | 5.8% | 69.2% | 14.4 µM | 0% | 45.7 µM | 17.7 µM
COc1ccc(S(=O)(=O)Nc2cccc(Br)c2)c(Cl)c1Cl | 17.5% | 42.8% | 5.3 µM | 0% | 69 µM | 15.4 µM
CCOc1ccc([C@@H]2Oc3c(Cl)cc(Cl)cc3C=C2[N+](=O)[O-])cc1OCC | 9.3% | 58.7% | 4.8 µM | 0% | < 100 µM | 2.9 µM
O=C1NC(=O)C(=Cc2ccc(N3CCOCC3)cc2)C(=O)N1 | 1.6% | 49.4% | 0.9 µM | 88% |  | 
Nc1c(C(=O)c2cccc([N+](=O)[O-])c2)sc2nc(-c3cccnc3)ccc12 | 5.1% | 41.8% |  | 52.7% |  | 
Cc1cc2c(c(O)c1-c1c(C)cc3c(c1O)/C(=C/Nc1c(O)cc(S(=O)(=O)O)c4ccccc14)C(=O)C(O)=C3C(C)C)/C(=C/Nc1c(O)cc(S(=O)(=O)O)c3ccccc13)C(=O)C(O)=C2C(C)C | 9.4% | 57.8% | 30.2 µM | 20.4% |  | 
